This note sets out measurements from patent US6251882A, “Alkyl ketones as potent anti-cancer agents” (Parker Hughes Institute, priority 1999, dated 2001).

The subject of experiment [1] is primary leukemic cells. Nature of the experiment: Apoptosis induction, primary leukemic cells (in situ TUNNEL, confocal microscopy). Format: cell-based, human. The method, then:
(§1) The ability of HI-131 to induce apoptosis cells was evaluated in human leukemia in NALM-6 cells and primary leukemic cells from 2 patients. Cells were treated with 50 μM compound HI-131 for 24 hours. After incubation, the cells were harvested and analyzed for apoptosis by in situ TUNNEL analysis and confocal laser scanning microscopy as described in Sudbeck et al., 1999, Clin Cancer Res., 5:1589-82. Controls were treated with vehicle alone.
(§2) Induction of apoptosis was further evaluated in primary leukemic cells and established NALM-6 and MOLT-3 cell lines following treatment with HI-131.

The subject of experiment [2] is MOLT-3 cells. Nature of the experiment: Apoptosis induction, MOLT-3 cells. Format: cell-based. The following applies: Homo sapiens, MOLT-3, 24 h; vs vehicle control (FIG. 3). Here is the method: as §1, §2
The subject of experiment [3] is MDA-MB-231 breast cancer cells. The experiment is described as follows: Cell invasion assay (Matrigel-coated Boyden chambers), MDA-MB-231. Format: cell-based, human. The following applies: through Matrigel matrix, 2.5 μM to 25 μM, 48 hours (FIG. 4). Here is the method: (§3) The in vitro invasiveness of MDA-MB-231 breast cancer cells and U373 glioblastoma cells was assayed using a previously published method which employs Matrigel-coated Costar 24-well transwell cell culture chambers ("Boyden chambers") with 8.0-μm-pore polycarbonate filter inserts (Albini, et al., 1987, Cancer Res., 47:3239-3245). The chamber filters were coated with 50 μg/ml of Matrigel matrix, incubated overnight at room temperature under a laminar flow hood and stored at 4° C. Matrigel matrix is made up of several components of the extracellular matrix (ECM), including collagens, laminin and proteo-glycans.
(§4) On the day of the experiment, the coated inserts were rehydrated with 0.5 ml serum-free DMEM containing 0.1% bovine serum albumin for 1-2 hours. […] The cells were trypsinized, washed twice with serum-free DMEM containing BSA, counted and resuspended at 1×10^5 cells/ml. […] The invasive cells that migrated to the lower side of the filter were fixed, stained with Hema-3 solutions and counted under microscope. Five to 10 random fields per filter were counted to determine the mean (SE) values for the invasive fraction. The invasive fractions of cells treated with HI-131 were compared to those of DMSO treated control cells and the percent invading relative to the control was determined using the formula: [formula]
(§5) Each treatment condition was evaluated in duplicate in 3 independent experiments. […]

In experiment [4] the test system is U373 glioblastoma cells. The experiment is described as follows: Cell invasion assay (Matrigel-coated Boyden chambers), U373. Format: cell-based, human. The following applies: through Matrigel matrix, 1 μM to 25 μM, 48 hours (FIG. 5). The method, then: as §3, §4, §5
The subject of experiment [5] is MDA-MB-231 breast cancer cells. Nature of the experiment: Adhesion assay to ECM proteins, MDA-MB-231. The following applies: laminin, fibronectin or type IV collagen; 16 hours (FIG. 6). Format: cell-based, human. Here is the method: A human brain tumor cell line derived from an adult patient with glioblastoma, U-373 MG (Cat. #HTB-17) and MDA-MB-231 breast cancer cells (Cat. #HTB-26) were obtained from American Type Culture Collection (ATCC, Manassas, Va.) and maintained in liquid culture using DMEM supplemented with 10% fetal bovine serum and antibiotics. Fibroblast conditioned medium was used as a source of chemoattractant in vitro invasion assays. Conditioned medium was prepared as described previously (Albini, et al., 1987, Cancer Res., 47:3239-3245). […]
In adhesion assays, cells were centrifuged, washed twice with serum-free DMEM, counted and resuspended in serum-free DMEM to a final concentration of 2.5×10^5 cells/ml. […] The adherent fraction was quantitated using MTT (3-[4,5-dimethylthiazol-2-yl]-2,5-diphenyltetrazolium bromide) assays. […] The absorbance of each well was measured in a microplate reader (Labsystems) at […] and a reference wavelength of 690 nm. […] The adherent fraction of cells treated with HI-131 was compared to the DMSO-treated control cells and the percent adhesion relative to the control was determined.
Each treatment condition was evaluated in duplicate in 3 independent experiments. The IC50 values were calculated by non-linear regression analysis.

As usually defined, the fold induction is the signal under treatment as a multiple of the control signal. Low readings indicate little rise in signal, high ones a large rise in signal. Take `CCCCCCCCCCCCSC[C@H](NC(C)=O)C(=O)CCl` [HI-131, N-Ac-S-dodecyl-Cys chloromethyl ketone]: in experiment [1] (50 μM, 24 hours, 2 patients), the “apoptosis induction (TUNNEL/confocal), primary leukemic cells” value was “greatly induced apoptosis”. Also, the fold induction at 50 µM in experiment [1] (Homo sapiens, 24 h, typical, vs vehicle control (FIG. 3)) was roughly 4; in experiment [2] it was roughly 20. Also, the “rate of apoptosis, primary leukemic cell samples” value in experiment [1] (all but one of the samples (FIG. 3)) is “increased dramatically”. Besides, the “inhibition of invasion, MDA-MB-231” value in experiment [3] was “inhibited the invasion”. Also, the “inhibition of invasion, U373” value in experiment [4] is recorded as “inhibited the invasion”. Also, in experiment [5], the “loss of adhesion, MDA-MB-231” value is recorded as “dose-dependent loss of adhesion”.
